Data set [1] is described as follows: Bulk density, tapped density and Carr index of primidone and primidone granules. Format: physicochemical. Particulars: for Carr Index: percent compressibility from tapped and bulk density. From the text:
“Carr index” as used herein is defined as the percent compressibility, that is a percentage ratio of the difference between tapped bulk density and initial bulk density to tapped bulk density.

For data set [2] the following is noted: cited from earlier work.

In brackets after ≈: the same amount, converted by molar mass.

As to `CCC1(c2ccccc2)C(=O)NCNC1=O` [Primidone Particle size D90 307 μm], in data set [1], the “Bulk Density, (Db)” value came to 0.850 g/mL; the “Tapped density (Dt)” value is 0.905 g/mL; the “Carr Index” value came to 6.1%.
On to `CCC1(c2ccccc2)C(=O)NCNC1=O` [Primidone Particle size D90 7.1 μm], for which, in data set [1], the “Bulk Density, (Db)” value is 0.221 g/mL; the “Tapped density (Dt)” value was found to be 0.307 g/mL; the “Carr Index” value is 28%.
For the compound `CCC1(c2ccccc2)C(=O)NCNC1=O` [Primidone, 5-ethyldihydro-5-phenyl-4,6 (1H, 5H pyrimidinedione)], the solubility in water in data set [2] was 600 µg/mL (≈ 2750 µM).

Values taken from US20070149779A1, “PRIMIDONE PROCESS AND COMPOSITIONS” (priority 2005, published 2007).
